# Data published in publication PMC8698672, “Selective Anticancer and Antimicrobial Metallodrugs Based on Gold(III) Dithiocarbamate Complexes” (Biomedicines, 2021).
# Tests used:
# [1] = Stability in phosphate buffer (pH 7.4, 37 °C) followed by UV–Vis over 24 h; type: physicochemical; settings: 50 µM
# Description: (§1) The stability of the gold complexes was analyzed by absorption UV spectroscopy. UV–Vis absorption spectra of the complexes were recorded on a Thermo Scientific spectrophotometer (Madrid, Spain). Solutions of C1–6 (5 × 10^−5 M) in 10 mM phosphate buffer (pH = 7.4, 137 mM NaCl) were prepared from 20 mM DMSO solutions of the complexes and thereafter monitored by measuring the electronic spectra over 24 h at 37 °C. To evaluate the stability in the presence of biological reductants, all complexes were pre-solved in a minimum amount of DMSO and then diluted in 10 mM phosphate buffer (pH 7.4, 20 mM NaCl) to a final concentration of 10 µM [41]. All experiments were measure on a quartz microplate. Studies with L-glutathion reduced (GSH) and ascorbic acid (AsA) were conducted by increasing the final concentration of 0 to 50 µM (GSH) and from 0–20 µM for AsA.
# Due to the aqueous nature of the bloodstream, studies to understand the behavior of our complexes in such an environment were considered necessary in order to determine the stability in simulated physiological conditions, pH = 7.4 and 37 °C. […] Besides, in the cases of complexes C1–4, a low-intensity broad band was detected (322 nm) (Figure 2 and Figure S3). […]
# This is usually associated with the formation of Au(III)-OH bonds, increasing the water solubility and, consequently, the intensity of absorbance. […]
# [2] = test system: Undifferentiated Caco-2/TC7 cell; assay: Apoptosis/necrosis, Annexin V-FITC / 7-AAD flow cytometry; type: cell-based, human; settings: 20 μM, 24 h
# Description: For the studies of apoptosis, using the detection of phosphatidylserine in the outer layer of the plasma membrane, an Annexin V-FITC Apoptosis Detection kit (Immunostep, Salamanca, Spain) was used. After incubation with the complexes, the cells were collected and transferred to flow-cytometry tubes. A negative control was prepared with untreated cells, which was used to define the basal level of apoptotic, necrotic, or dead cells. The staining with Annexin V-FITC and 7-Aminoactinomycin D (7-AAD) was performed according to the manufacturer’s recommendations. The cells were washed twice with temperate phosphate-buffered saline (PBS) and resuspended in 200 μL of 1x Annexin-binding buffer. After that, 2.5 μL Annexin V-FITC and 2.5 μL […] were added to each 50 μL of cell suspension. After incubation for 15 min at RT in the dark, 400 μL of 1× Annexin-binding buffer were added and analyzed by flow cytometry within 1 h. The signal intensity was measured using a Gallios Flow Cytometer (Beckman Coulter, Brea, CA, USA) and analyzed using the Kaluza Analysis Software (Beckman Coulter).
# After obtaining great results from the cell viability studies, it was determined that only non-cytotoxic complexes on normal cells are good candidates as anticancer drugs, so complexes C1, C5, and C6 were selected for the following studies. Thus, we proceeded to elucidate the action mechanism of these three complexes to induce cell death. The most convenient cell death for anticancer drugs is apoptosis, since in this way no inflammation processes occur and it is carefully controlled. The apoptotic way is normally characterized by several morphological changes in the cell membrane, by which phosphatidylserine (PS) is exposed, moving from the inner part to the outer surface of the membrane. Thanks to this translocation, Annexin V (FITC-conjugated) can interact selectively with the PS, differentiating healthy cells from apoptotic cells. Besides, cells undergoing late apoptosis stages and necrotic cells present deep damage in the membrane that makes 7-aminoactinomycin D (7-AAD) access the nucleus. Therefore, by using flow cytometry, all different cell populations can be distinguished.
# Figure 4 Undifferentiated Caco-2/TC7 cell apoptotic-state (a) and necrotic-state (b) analysis after 24 h of incubation with C1, C5, and C6 (20 µM).
# [3] = Stability in the presence of reduced L-glutathione (GSH), UV–Vis; type: physicochemical; settings: GSH 0–50 µM, PBS, 37 °C, 24 h
# Description: as §1
# This is usually associated with the formation of Au(III)-OH bonds, increasing the water solubility and, consequently, the intensity of absorbance. […] We observed that our complexes were stable with the addition of GSH over 24 h, even in a high excess of GSH to Au(III) complexes (50 vs. 16 µM) (Figure S4), since no evidence of decomposition or new bands was detected. […]
smiles,measurement,setting,value
"Cc1ccc(-c2ccccn2)[c]([Au+][S]C(=S)N(C)C)c1.F[P-](F)(F)(F)(F)F [Complex C1, [Au(tpy)(dmdtc)] PF6]",Stability in PBS (UV–Vis spectra over time),[1],absence of new bands around 550 nm
same,necrosis,[2],did not die because of necrosis
same,percentage of cells in apoptosis vs control,[2],no significant differences
"CN(C)C(=S)[S][Au+][c]1ccccc1-c1ccccn1.F[P-](F)(F)(F)(F)F [Complex C2, [Au(ppy)(dmdtc)]PF6]",Stability towards GSH (UV–Vis spectra),[3],slight changes in intensity
"CCN(CC)C(=S)[S][Au+][c]1cc(C)ccc1-c1ccccn1.F[P-](F)(F)(F)(F)F [Complex C3, [Au(tpy)(dedtc)]PF6]",Stability towards GSH (UV–Vis spectra),[3],slight changes in intensity
"Cc1ccc2[c](c1)[Au-]1([S]C(N(Cc3ccccc3)Cc3ccccc3)=[S+]1)[n+]1ccccc1-2.F[P-](F)(F)(F)(F)F (stereo not shown) [Complex C5, [Au(tpy)(dbdtc)]PF6]",Stability in PBS (UV–Vis spectra over time),[1],slight increase in the intensity of 328 nm band
same,necrosis,[2],did not die because of necrosis
same,percentage of cells in apoptosis vs control,[2],no significant differences
"F[P-](F)(F)(F)(F)F.S=C([S][Au+][c]1ccccc1-c1ccccn1)N(Cc1ccccc1)Cc1ccccc1 [Complex C6, [Au(ppy)(dbdtc)]PF6]",necrosis,[2],did not die because of necrosis
same,percentage of cells in apoptosis vs control,[2],no significant differences
